Experiments:
[1] = test system: Carrageenan Induced Paw Edema; experiment: Anti-inflammatory activity in carrageenan induced paw edema in rats (Example 11); type: in vivo, SD rats; settings: 6 h after carrageenan; oral; dose per group 10-100 mg/Kg; 6 rats per group
Procedure: SD rats (M/F) weighing 180-220 gm. were selected for the study. The animals were acclimatized for a period of five days and they were fed with standard pellet diet and water ad libitum. After five days of acclimatization, the rats were deprived of food, but had free access to drinking water for 12 hours prior to the experiment. Right hind paw of each rat was marked at the tibio-tarsal junction and baseline paw volume was determined using a digital plethysmometer (UGO BASILE, ITALY). Rats were divided into different groups keeping 6 rats in each group. Test sample/standard NSAID/vehicle was fed orally at designated dose. After 30 minutes of test sample/standard/vehicle, 0.1 ml carrageenan (1% suspension in 0.9% NaCl) was injected to the animals in subplantar region of the right hind paw. The paw volume was again determined for all the animals at 6 h after carrageenan injection and percentage inhibition was calculated by using following formula: […]

[2] = test system: Carrageenan induced paw edema; experiment: Carrageenan paw edema in rats: different ratios of Boswellia and sesame oil (Example 10); type: in vivo
Procedure: The animals were housed in polypropylene cages and maintained under standard animal house conditions (12:12 hour light/dark cycle at 24±2° C. and 45-65% relative humidity). The rats had free access to standard pellet diet and water. 27 rats were divided into 9 groups comprising of 3 rats in each group. The rats were deprived of food, but had free access to drinking water for 12 h prior to the experiment. The treatment was as follows: After 12 hour fasting, baseline paw volume was recorded for each rat using digital plethysmometer (Ugo Basile, […]). Carrageenan (0.1 ml of 1%) in saline (0.9% NaCl) was injected into the plantar surface of the right hind paw of the animals. The experimental groups were given the designated extract/standard orally, 30 minutes prior to the injection of the carrageenan. After injection of carrageenan, paw volume was recorded at 3 hr to 6 hr post carrageenan. The edema was expressed as an increase in the volume of paw from baseline value, and the percentage of inhibition for each rat was calculated. Different compositions of sesame oil with boswellia was tested to find out the optimum ratio with enhanced activity. Each composition of boswellia has undergone a regress milling and grinding resulting in SSA of greater than 1.2×10^3 m^2/kg. • Group 1: 50 mg/Kg AKBA10+Sesame oil (2:3). • Group 2: 50 mg/Kg, AKBA10+Sesame oil (5:7) • Group 3: 50 mg/Kg AKBA10+Sesame oil (9:11) • Group 4: 50 mg/Kg AKBA10+Sesame oil (1:3) • Group 5: 50 mg/Kg AKBA10+Sesame oil (1:5) • Group 6: 50 mg/Kg AKBA10+Sesame oil (1:9) • Group 7: 50 mg/Kg AKBA10+Sesame oil (1:1) • Group 8: 50 mg/Kg AKBA10+Sesame oil • Group 9: 10 mg/Kg Diclofenac

## O=C(O)Cc1ccccc1Nc1c(Cl)cccc1Cl [Diclofenac]
[1]
  Percentage inhibition in 6 Hours: 86%
[2]; 3 hr post carrageenan, oral, AKBA10+sesame oil 50 mg/Kg, SSA >1.2×10^3 m^2/kg, Diclofenac 10 mg/kg
  Percentage inhibition (%) 3HR: 66%
[2]; 6 hr post carrageenan, oral, AKBA10+sesame oil 50 mg/Kg, Diclofenac 10 mg/kg
  Percentage inhibition (%) 6HR: 98%
[2]; average of 3HR and 6HR
  Average percentage inhibition: 82%
